Source: US10723708B2, “Anti-HCMV compositions and methods” (FORGE Life Science, LLC, priority 2014, dated 2020)

test system: human cytomegalovirus (HCMV); assay: Antiviral activity against HCMV, virus yield/replication assay in MRC5 cells; assay type: cell-based; settings: Human betaherpesvirus 5; infected human MRC5 cells; virus yield in supernatant at 96 hours / four days, read by IE protein expression in fresh MRC5 cells
Description: Assessing Antiviral Activity Against Human Cytomegalovirus (HCMV)
To assess their antiviral activity, some compounds were tested against human cytomegalovirus (HCMV) in vitro. Human MRC5 cells were grown in Dulbecco's Modified Eagle Medium (DMEM) supplemented with 10% fetal bovine serum (FBS) and infected with an HCMV variant expressing GFP tagged pUL99 (the product of late viral UL99 gene) at a multiplicity of 1 infectious unit (IU) per cell. One hour later, medium of the cells was replaced with fresh medium containing the indicated compounds at 50, 25, 12.5, 6.25, 3.13, 1.56, 0.78, 0.39 μM or the carrier in which the compounds are dissolved (DMSO). Final concentration of DMSO was 0.5% in each treatment. Virus yield in the culture supernatant was determined at 96 hours after infection by infecting fresh MRC5 cells and assaying viral IE1 protein expression. Results were plotted using either Prism Software or CDD Vault (CDD Vault was developed by Collaborative Drug Discovery, Inc., 1633 Bayshore Hwy, Suite 342, Burlingame, Calif. 94010) in order to calculate IC50s.
Alternatively, antiviral efficacy of some compounds was assessed by inhibition of HCMV replication during in vitro replication assays. Briefly, confluent monolayers of MRC5 fibroblasts in a 96 well plate format (˜1.0×10^4 cells/well) were infected with an AD169 strain of HCMV for one hour. After the initial incubation hour, virus containing media was removed and 100 ul of media with sequential dilutions of FORGE compounds added to each well. The concentrations of the FORGE compounds were 50 μM, 25 μM, […], 6.25 μM, 3.125 μM, 1.56 μM, and 0.78125 μM as well as a vehicle control (0.5% DMSO). The concentration of DMSO was constant between all conditions. Assays were performed in duplicate. Infected plates were returned to the incubator and the viral infection was allowed to progress for four days. On the fourth day, 50 μL of cell free supernatant was collected from each well and used to infect a new 96 well plate seeded with a confluent monolayer of MRC5 fibroblasts along with 50 μL of media to bring the total volume to 100 μL. The next day the media was removed and the infected monolayer was fixed with cold methanol, and Immediate Early proteins were detected by immunofluorescence assays to quantify the number of cells that were infected with HCMV. IE gene expression was quantified within five random fields within each well and corresponding numbers were utilized to determine viral replication. Results from each well were normalized to the vehicle control well so as to allow a percent reduction from no drug treatment to be calculated. Results were plotted using either Prism Software or CDD Vault in order to calculate IC50s.

Q: Which IC50 does the source give for `COc1ccccc1C(C)CCNc1cccc2cccnc12` (stereo not drawn) [Example 19] here?
A: 1.28 ± 0.16 µM

Q: With `COc1ccc(C(C)CCNc2cnc3ccccc3c2)cc1` (stereo not drawn) [Example 1] as the molecule, how does the IC50 read?
A: 25 to 50 µM

Q: How did the IC50 turn out when `COc1ccccc1C(C)CC(=O)Nc1cccc2ccccc12` (stereo not drawn) [Example 41] was run?
A: 29.2 ± 17.8 µM

Q: For `CC(CCOc1cccc2cccnc12)c1ccccc1Cl` (stereo not drawn) [Example 52], which IC50 is on record?
A: 1.98 ± 0.68 µM

Q: With `COc1ccc(C(C)CCNc2cccc3cccnc23)cc1` (stereo not drawn) [Example 15] as the molecule, how does the IC50 read?
A: 3.27 ± 0.41 µM

Q: For `COc1cccc(C(C)CCNc2cccc3cccnc23)c1` (stereo not drawn) [Example 17], which IC50 is on record?
A: 2.69 ± 0.94 µM

Q: How did the IC50 turn out when `CCC(CC(=O)Nc1cccc2cccnc12)c1ccccc1OC` (stereo not drawn) [Example 33] was run?
A: 5.3 ± 0.31 µM

Q: `Cc1ccccc1C(C)CC(=O)Nc1cccc2cccnc12` (stereo not drawn) [Example 24] was tested. Which IC50 did it give?
A: > 50 µM

Q: `CC(CCNc1cccc2cccnc12)c1c(Cl)cccc1Cl` (stereo not drawn) [Example 51] was tested. Which IC50 did it give?
A: 1.94 ± 0.51 µM

Q: With `CC(CC(=O)Nc1cnc2ccccc2c1)c1ccccc1` (stereo not drawn) [Example 8] as the molecule, how does the IC50 read?
A: 3.03 ± 0.69 µM

Q: With `COc1ccccc1C(C)CC(=O)n1ccc2ccccc21` (stereo not drawn) [Example 37] as the molecule, how does the IC50 read?
A: > 50 µM

Q: For `COc1ccccc1C(C)C(F)C(=O)Nc1cccc2cccnc12` (stereo not drawn) [Example 26], which IC50 is on record?
A: 5.38 ± 3.93 µM

Q: Which IC50 does the source give for `CC(CNc1cccc2nccnc12)c1cc(Cl)ccc1Cl` (stereo not drawn) [Example FLS-118] here?
A: 3.2 µM

Q: How did the IC50 turn out when `COc1ccccc1C(C)C(C)C(=O)Nc1cccc2cccnc12` (stereo not drawn) [Example 29] was run?
A: 11.5 ± 7.71 µM

Q: With `COc1cccc(C(C)CC(=O)Nc2ccc3ncccc3c2)c1` (stereo not drawn) [Example 12] as the molecule, how does the IC50 read?
A: 3.34 ± 1.45 µM

Q: Which IC50 does the source give for `CC(CCC(=O)Nc1cccc2cccnc12)c1ccccc1Cl` (stereo not drawn) [FH000006-K-8-A] here?
A: 4.5 µM

Q: For `COc1ccc(C(C)CC(=O)Nc2ccc3ncccc3c2)cc1` (stereo not drawn) [Example 10], which IC50 is on record?
A: 5.82 ± 1.98 µM

Q: Which IC50 does the source give for `COc1cccc(C(C)CC(=O)Nc2cnc3ccccc3c2)c1` (stereo not drawn) [Example 4] here?
A: 21.2 ± 14.5 µM

Q: `CC(CCNc1ccc(Br)c2cccnc12)c1ccccc1` (stereo not drawn) [Example 53] was tested. Which IC50 did it give?
A: 11.6 ± 0.36 µM

Q: `CCC(CCNc1cccc2cccnc12)c1ccccc1OC` (stereo not drawn) [Example 32] was tested. Which IC50 did it give?
A: 2.25 ± 0.33 µM

Q: Which IC50 does the source give for `CC(CCNc1ccc(Br)c2cccnc12)c1ccccc1Cl` (stereo not drawn) [FH000006-K-6] here?
A: 7.9 µM

Q: With `COc1ccccc1C(C)C(C)CNc1cccc2cccnc12` (stereo not drawn) [Example 28] as the molecule, how does the IC50 read?
A: 2.89 ± 0.95 µM

Q: How did the IC50 turn out when `COc1ccccc1C(C)CC(=O)Nc1cccc2nccnc12` (stereo not drawn) [Example 39] was run?
A: > 50 µM

Q: With `COc1ccccc1CCC(=O)Nc1cccc2cccnc12` [Example 31] as the molecule, how does the IC50 read?
A: > 50 µM

Q: For `CC(CCNc1cnc2ccccc2c1)c1ccccc1` (stereo not drawn) [Example 7], which IC50 is on record?
A: > 50 µM

Q: With `COc1cccc(C(C)CCNc2ccc3ncccc3c2)c1` (stereo not drawn) [Example 11] as the molecule, how does the IC50 read?
A: 5.75 ± 2.47 µM

Q: With `COc1cccc(C(C)CC(=O)Nc2cccc3cccnc23)c1` (stereo not drawn) [Example 18] as the molecule, how does the IC50 read?
A: > 50 µM

Q: For `CC(CCNc1cccc2cccnc12)c1ccccc1Cl` (stereo not drawn) [Example 21], which IC50 is on record?
A: 1.2 ± 0.52 µM

Q: `COc1ccc(C(C)CCNc2ccc3ncccc3c2)cc1` (stereo not drawn) [Example 9] was tested. Which IC50 did it give?
A: 2.41 ± 0.04 µM

Q: For `COc1ccc(C(C)CC(=O)Nc2cccc3cccnc23)cc1` (stereo not drawn) [Example 16], which IC50 is on record?
A: 26.9 ± 11.5 µM

Q: With `CC(CCNc1cccc2cccnc12)c1ccccc1Br` (stereo not drawn) [Example 50] as the molecule, how does the IC50 read?
A: 2.92 ± 1.26 µM

Q: `CC(CC(=O)Nc1cccc2cccnc12)c1ccccc1Cl` (stereo not drawn) [Example 22] was tested. Which IC50 did it give?
A: 1.28 ± 1.82 µM

Q: With `CC(CNc1cccc2[nH]ccc12)c1ccccc1Cl` (stereo not drawn) [Example FLS-120] as the molecule, how does the IC50 read?
A: 5 µM

Q: With `CC(CC(=O)Nc1cccc2cccnc12)c1ccccc1` (stereo not drawn) [Example 49] as the molecule, how does the IC50 read?
A: > 50 µM

Q: Which IC50 does the source give for `COc1ccccc1C(C)CCNc1ccc2ncccc2c1` (stereo not drawn) [Example 13] here?
A: 23.4 ± 0.6 µM

Q: For `COc1ccccc1CCCNc1cccc2cccnc12` [Example 30], which IC50 is on record?
A: 12.1 ± 8.44 µM

Q: Which IC50 does the source give for `COc1ccccc1C(C)C(O)CNc1cccc2cccnc12` (stereo not drawn) [Example 27] here?
A: 28.5 ± 2.68 µM

Q: With `COc1ccccc1C(C)CC(=O)Nc1ccc2ncccc2c1` (stereo not drawn) [Example 14] as the molecule, how does the IC50 read?
A: 2.2 ± 1.32 µM

Q: How did the IC50 turn out when `CC(CC(=O)Nc1cccc2cccnc12)c1ccccn1` (stereo not drawn) [Example 35] was run?
A: > 50 µM

Q: Which IC50 does the source give for `COc1ccccc1C(C)C(F)CNc1cccc2cccnc12` (stereo not drawn) [Example 25] here?
A: 3.73 ± 0.46 µM

Q: Which IC50 does the source give for `COc1ccccc1C(C)CCn1ccc2ccccc21` (stereo not drawn) [Example 36] here?
A: > 50 µM

Q: `COc1ccc(C(C)CC(=O)Nc2cnc3ccccc3c2)cc1` (stereo not drawn) [Example 2] was tested. Which IC50 did it give?
A: > 50 µM

Q: For `COc1ccccc1C(C)CC(=O)Nc1ccccc1` (stereo not drawn) [Example 45], which IC50 is on record?
A: > 50 µM

Q: With `COc1ccccc1C(C)CC(=O)Nc1cccc2cccnc12` (stereo not drawn) [Example 20] as the molecule, how does the IC50 read?
A: 19.7 ± 14.7 µM

Q: For `COc1ccccc1C(C)CCNc1cccc2[nH]ccc12` (stereo not drawn) [Example 42], which IC50 is on record?
A: 1.32 ± 0.84 µM

Q: Which IC50 does the source give for `CC(CCNc1cccc2cccnc12)c1ccccn1` (stereo not drawn) [Example 34] here?
A: > 50 µM

Q: For `CC(CNc1cccc2nccnc12)C(C)c1cc(Cl)ccc1Cl` (stereo not drawn) [Example FLS-114], which IC50 is on record?
A: 6.4 µM

Q: For `COc1cccc(C(C)CCNc2cnc3ccccc3c2)c1` (stereo not drawn) [Example 3], which IC50 is on record?
A: 25 to 50 µM

Q: With `CC(CNc1cccc2nccnc12)C(C)c1ccc(Cl)cc1Cl` (stereo not drawn) [Example DV7016] as the molecule, how does the IC50 read?
A: 23.1 µM

Q: For `CC(CCCNc1cccc2cccnc12)c1ccccc1Cl` (stereo not drawn) [FH000006-K-8], which IC50 is on record?
A: 6.3 µM

Q: For `CC(CNc1cccc2nccnc12)c1cc(Cl)cc(Cl)c1` (stereo not drawn) [Example FLS-119], which IC50 is on record?
A: 2.7 µM

Q: Which IC50 does the source give for `CC(CC(=O)Nc1cnc2ccccc2c1)c1ccccc1Cl` (stereo not drawn) [Example 6] here?
A: 21.1 ± 14.5 µM

Q: `CC(CCNc1cnc2ccccc2c1)c1ccccc1Cl` (stereo not drawn) [Example 5] was tested. Which IC50 did it give?
A: 18.6 ± 4.62 µM

Q: With `COc1ccccc1C(C)CC(=O)Nc1cccc2[nH]ccc12` (stereo not drawn) [Example 43] as the molecule, how does the IC50 read?
A: 12.5 ± 4.14 µM

Q: For `CC(CNc1cccc2nccnc12)c1ccccc1Cl` (stereo not drawn) [Example FLS-117], which IC50 is on record?
A: 3.2 µM

Q: How did the IC50 turn out when `CC(CNc1cccc2[nH]ccc12)C(C)c1ccccc1Cl` (stereo not drawn) [Example FLS-116] was run?
A: 3.5 µM

Q: With `COc1ccc(Br)cc1C(C)CC(=O)Nc1cccc2cccnc12` (stereo not drawn) [Example 47] as the molecule, how does the IC50 read?
A: 5.88 ± 1.93 µM

Q: How did the IC50 turn out when `CC(CCNc1cccc2cccnc12)c1ccccc1` (stereo not drawn) [Example 48] was run?
A: > 50 µM

Q: `COc1ccc(Br)cc1C(C)CCNc1cccc2cccnc12` (stereo not drawn) [Example 46] was tested. Which IC50 did it give?
A: 21.7 ± 2.48 µM

Q: How did the IC50 turn out when `COc1ccccc1C(C)CCNc1cccc2nccnc12` (stereo not drawn) [Example 38] was run?
A: 3.61 ± 0.54 µM

Q: Which IC50 does the source give for `COc1ccccc1C(C)CCNc1ccccc1` (stereo not drawn) [Example 44] here?
A: > 50 µM

Q: Which IC50 does the source give for `Cc1ccccc1C(C)CCNc1cccc2cccnc12` (stereo not drawn) [Example 23] here?
A: 2.01 ± 0.71 µM

Q: How did the IC50 turn out when `COc1ccccc1C(C)CCNc1cccc2ccccc12` (stereo not drawn) [Example 40] was run?
A: 2.83 ± 0.28 µM
